# Measurements reported in the supplement of paper PMC10307832.
# Assays:
# Assay in all cases: relative viability (nuclei count vs DMSO), 5 days (fraction); higher = more cells survive
# [1] = tested on: HCC-366
# In short: (§1)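 Lung cancer cell lines in 1536-well plates were dosed by pin tool the day after seeding, either with one drug alone or with a fixed anchor-drug dose plus five library-drug doses (not always all listed) in √10 steps. After 5 days, cells were fixed and their nuclei stained in one step (final 0.05% Triton X-100, 1% formaldehyde, 1 ug/ml Hoechst), then counted on 4× images. Relative viability is the nuclei count in treated wells divided by that in vehicle wells. Values are medians of duplicate plates.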
# [2] = tested on: NCI-H1395
# In short: as §1
# [3] = tested on: NCI-H1623
# In short: as §1
# [4] = tested on: HCC-78
# In short: as §1
# [5] = tested on: NCI-H1648
# In short: as §1
# [6] = tested on: EMC-BAC-2
# In short: as §1
# [7] = tested on: LCLC-97TM1
# In short: as §1
smiles,measurement,setting,value
Cc1cn(-c2cc(NC(=O)c3ccc(C)c(Nc4nccc(-c5cccnc5)n4)c3)cc(C(F)(F)F)c2)cn1 [Nilotinib] + Cc1cc(Nc2cc(N3CCN(C)CC3)nc(Sc3ccc(NC(=O)C4CC4)cc3)n2)n[nH]1 [Tozasertib] (partner 0.1 µM),relative viability,[1]; first compound 0.001 µM,0.0811
same,relative viability,[1]; first compound 0.003162 µM,0.057
same,relative viability,[1]; first compound 0.01 µM,0.0646
same,relative viability,[1]; first compound 0.03162 µM,0.072
same,relative viability,[1]; first compound 0.1 µM,0.05
same,relative viability,[2]; first compound 0.001 µM,0.691
same,relative viability,[2]; first compound 0.003162 µM,0.674
same,relative viability,[2]; first compound 0.01 µM,0.751
same,relative viability,[2]; first compound 0.03162 µM,0.612
same,relative viability,[2]; first compound 0.1 µM,0.736
same,relative viability,[3]; first compound 0.001 µM,0.415
same,relative viability,[3]; first compound 0.003162 µM,0.528
same,relative viability,[3]; first compound 0.01 µM,0.457
same,relative viability,[3]; first compound 0.03162 µM,0.401
same,relative viability,[3]; first compound 0.1 µM,0.885
same,relative viability,[4]; first compound 0.001 µM,0.408
same,relative viability,[4]; first compound 0.003162 µM,0.373
same,relative viability,[4]; first compound 0.01 µM,0.479
same,relative viability,[4]; first compound 0.03162 µM,0.331
same,relative viability,[4]; first compound 0.1 µM,0.28
same,relative viability,[5]; first compound 0.003162 µM,0.395
same,relative viability,[5]; first compound 0.01 µM,0.389
same,relative viability,[5]; first compound 0.03162 µM,0.403
same,relative viability,[5]; first compound 0.1 µM,0.383
same,relative viability,[6]; first compound 0.001 µM,0.259
same,relative viability,[6]; first compound 0.003162 µM,0.258
same,relative viability,[6]; first compound 0.01 µM,0.244
same,relative viability,[6]; first compound 0.03162 µM,0.269
same,relative viability,[7]; first compound 0.001 µM,0.236
same,relative viability,[7]; first compound 0.003162 µM,0.254
same,relative viability,[7]; first compound 0.01 µM,0.161
same,relative viability,[7]; first compound 0.03162 µM,0.182
same,relative viability,[7]; first compound 0.1 µM,0.217
CN1CCN(CCOc2cc(OC3CCOCC3)c3c(Nc4c(Cl)ccc5c4OCO5)ncnc3c2)CC1 [Saracatinib] + COc1cccc2cc(-c3nc([C@H]4CC[C@H](C(=O)O)CC4)n4ncnc(N)c34)[nH]c12 [OSI-027] (partner 0.5 µM),relative viability,[1]; first compound 0.02 µM,1.02
same,relative viability,[1]; first compound 0.6325 µM,0.757
same,relative viability,[1]; first compound 2 µM,0.385
same,relative viability,[2]; first compound 0.02 µM,0.618
same,relative viability,[2]; first compound 0.2 µM,0.613
same,relative viability,[2]; first compound 0.6325 µM,0.583
same,relative viability,[2]; first compound 2 µM,0.485
same,relative viability,[3]; first compound 0.02 µM,0.441
same,relative viability,[3]; first compound 0.2 µM,0.388
same,relative viability,[3]; first compound 0.6325 µM,0.404
same,relative viability,[3]; first compound 2 µM,0.357
same,relative viability,[4]; first compound 0.02 µM,0.426
same,relative viability,[4]; first compound 0.6325 µM,0.379
same,relative viability,[4]; first compound 2 µM,0.317
same,relative viability,[5]; first compound 0.02 µM,0.265
same,relative viability,[5]; first compound 0.6325 µM,0.262
same,relative viability,[5]; first compound 2 µM,0.283
same,relative viability,[6]; first compound 0.02 µM,0.412
same,relative viability,[6]; first compound 0.2 µM,0.322
same,relative viability,[6]; first compound 0.6325 µM,0.355
same,relative viability,[6]; first compound 2 µM,0.297
same,relative viability,[7]; first compound 0.02 µM,0.696
same,relative viability,[7]; first compound 0.2 µM,0.221
same,relative viability,[7]; first compound 0.6325 µM,0.7
same,relative viability,[7]; first compound 2 µM,0.505
CN1CCN(CCOc2cc(OC3CCOCC3)c3c(Nc4c(Cl)ccc5c4OCO5)ncnc3c2)CC1 [Saracatinib] + Cc1cc(Nc2cc(N3CCN(C)CC3)nc(Sc3ccc(NC(=O)C4CC4)cc3)n2)n[nH]1 [Tozasertib] (partner 0.1 µM),relative viability,[1]; first compound 0.02 µM,0.117
same,relative viability,[1]; first compound 0.6325 µM,0.074
same,relative viability,[1]; first compound 2 µM,0.0412
same,relative viability,[2]; first compound 0.02 µM,0.722
same,relative viability,[2]; first compound 0.2 µM,0.763
same,relative viability,[2]; first compound 0.6325 µM,0.83
same,relative viability,[2]; first compound 2 µM,0.619
same,relative viability,[3]; first compound 0.02 µM,0.447
same,relative viability,[3]; first compound 0.2 µM,0.443
same,relative viability,[3]; first compound 0.6325 µM,0.456
same,relative viability,[3]; first compound 2 µM,0.348
same,relative viability,[4]; first compound 0.02 µM,0.403
same,relative viability,[4]; first compound 0.6325 µM,0.572
same,relative viability,[4]; first compound 2 µM,0.405
same,relative viability,[5]; first compound 0.02 µM,0.629
same,relative viability,[5]; first compound 0.6325 µM,0.813
same,relative viability,[5]; first compound 2 µM,0.362
same,relative viability,[6]; first compound 0.02 µM,0.265
same,relative viability,[6]; first compound 0.2 µM,0.256
same,relative viability,[6]; first compound 0.6325 µM,0.286
same,relative viability,[6]; first compound 2 µM,0.271
same,relative viability,[7]; first compound 0.02 µM,0.21
same,relative viability,[7]; first compound 0.2 µM,0.173
same,relative viability,[7]; first compound 0.6325 µM,0.287
same,relative viability,[7]; first compound 2 µM,0.185
